From PubChem BioAssay AID330 (DTP/NCI, 2004)
Values joined by “and” are separate entries in the source; they are usually repeats but may differ in a detail not shown here. Identical values can stand only once. Inconclusive results and toxic doses are left out. How the source made its calls: active means survival T/C of 150% or more; inactive means T/C below 125% in these data.

Tested on: P388 leukemia ip, CD2F1 mice, survival T/C
Assay: NCI In Vivo Anticancer Drug Screen. Data for tumor model P388 Leukemia (intraperitoneal) in CD2F1 (CDF1) mice
Conditions: endpoint: median survival time, higher = longer survival
Method in brief: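 Mice carrying the transplanted tumor received test compound or vehicle. Survival was recorded in each group, and the value is the treated-group measurement divided by that of the vehicle-treated control group.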

[1] = dose: 12.5 mg/kg/injection, schedule: Q01DX009 (ip), vehicle: saline with Tween-80
[2] = dose: 25.0 mg/kg/injection, schedule: Q01DX009 (ip), vehicle: saline with Tween-80
[3] = dose: 50.0 mg/kg/injection, schedule: Q01DX009 (ip), vehicle: saline with Tween-80
[4] = dose: 50.0 mg/kg/injection, schedule: Q01DX005 (ip), vehicle: saline with Tween-80
[5] = dose: 100.0 mg/kg/injection, schedule: Q01DX005 (ip), vehicle: saline with Tween-80
[6] = dose: 200.0 mg/kg/injection, schedule: Q01DX005 (ip), vehicle: saline with Tween-80
[7] = dose: 25.0 mg/kg/injection, schedule: Q01DX005 (ip), vehicle: Klucel (hydroxypropylcellulose) (HPC)
[8] = dose: 50.0 mg/kg/injection, schedule: Q01DX005 (ip), vehicle: Klucel (hydroxypropylcellulose) (HPC)
[9] = dose: 100.0 mg/kg/injection, schedule: Q01DX005 (ip), vehicle: Klucel (hydroxypropylcellulose) (HPC)
[10] = dose: 12.5 mg/kg/injection, schedule: Q01DX009 (ip), vehicle: saline
[11] = dose: 25.0 mg/kg/injection, schedule: Q01DX009 (ip), vehicle: saline
[12] = dose: 100.0 mg/kg/injection, schedule: Q01DX009 (ip), vehicle: saline with Tween-80
[13] = dose: 200.0 mg/kg/injection, schedule: Q01DX009 (ip), vehicle: saline with Tween-80
[14] = dose: 200.0 mg/kg/injection, schedule: Q01DX005 (ip), vehicle: Klucel (hydroxypropylcellulose) (HPC)
[15] = dose: 25.0 mg/kg/injection, schedule: Q01DX009 (ip), vehicle: water
[16] = dose: 50.0 mg/kg/injection, schedule: Q01DX009 (ip), vehicle: water
[17] = dose: 100.0 mg/kg/injection, schedule: Q01DX009 (ip), vehicle: water
[18] = dose: 200.0 mg/kg/injection, schedule: Q01DX009 (ip), vehicle: water
[19] = dose: 60.0 mg/kg/injection, schedule: Q01DX005 (ip), vehicle: saline with Tween-80
[20] = dose: 120.0 mg/kg/injection, schedule: Q01DX005 (ip), vehicle: saline with Tween-80
[21] = dose: 240.0 mg/kg/injection, schedule: Q01DX005 (ip), vehicle: saline with Tween-80

Measured: T/C

CCOC(=O)C(C(=O)c1ccccc1)c1cc(NS(=O)(=O)c2ccccc2)ccc1O (centres undefined)
inactive: [1] 90 % of control | [2] 100 % of control | [3] 105 % of control | dose: 75.0 mg/kg/injection, schedule: Q04DX003 (ip), vehicle: saline with Tween-80 100 % of control | dose: 150.0 mg/kg/injection, schedule: Q04DX003 (ip), vehicle: saline with Tween-80 100 % of control | dose: 300.0 mg/kg/injection, schedule: Q04DX003 (ip), vehicle: saline with Tween-80 100 % of control

NC(=O)N/N=C1\CSCc2ccccc21
inactive: dose: 25.0 mg/kg/injection, schedule: Q01DX009 (ip), vehicle: other 93 % of control | dose: 50.0 mg/kg/injection, schedule: Q01DX009 (ip), vehicle: other 92 % of control | dose: 100.0 mg/kg/injection, schedule: Q01DX009 (ip), vehicle: other 93 % of control | dose: 200.0 mg/kg/injection, schedule: Q01DX009 (ip), vehicle: other 99 % of control | dose: 400.0 mg/kg/injection, schedule: Q01DX009 (ip), vehicle: other 117 % of control

C/C(=N\NC(=S)N1CCN(c2ccccn2)CC1)c1ccccn1
inactive: dose: 12.5 mg/kg/injection, schedule: Q01DX005 (ip), vehicle: water 103 % of control | dose: 25.0 mg/kg/injection, schedule: Q01DX005 (ip), vehicle: water 108 % of control

Cn1nnnc1NNc1nnnn1C
inactive: [4] 99 % of control | [5] 99 % of control | [6] 99 % of control

COc1c2c(c(OC)c3c1c(=O)c1ccccc1n3C)OCO2
inactive: [4] 104 % of control | [5] 104 % of control | [6] 100 % of control

CCN(CC)CCOC(=O)Cc1cccc2c(=O)cc(-c3ccc(OC)cc3)oc12
inactive: dose: 12.5 mg/kg/injection, schedule: Q01DX005 (ip), vehicle: Klucel (hydroxypropylcellulose) (HPC) 113 % of control | [7] 113 % of control | [8] 98 % of control | [9] 121 % of control

OCC1OC(n2cnc3c(=S)nc[nH]c32)CC1O (centres undefined)
inactive: dose: 167.0 mg/kg/injection, schedule: Q01DX009 (ip), vehicle: saline with Tween-80 100 % of control | dose: 267.0 mg/kg/injection, schedule: Q01DX009 (ip), vehicle: saline with Tween-80 113 % of control

O=C1N2CCCC2(S)C(=O)N2CCCC12[S-].[Zn] (centres undefined)
inactive: [10] 95 % of control and 97 % of control | [11] 100 % of control and 90 % of control | dose: 50.0 mg/kg/injection, schedule: Q01DX009 (ip), vehicle: saline 108 % of control and 119 % of control | dose: 100.0 mg/kg/injection, schedule: Q01DX009 (ip), vehicle: saline 124 % of control and 95 % of control

COC(=O)c1ccc(SCCC(C)=O)cc1
inactive: [3] 99 % of control | [12] 106 % of control | [13] 101 % of control

O=C(O)c1cnccc1C(=O)c1ccccc1
inactive: [8] 101 % of control | [9] 101 % of control | [14] 92 % of control

O=c1cc(Br)[nH]c(=O)o1
inactive: [2] 91 % of control | [3] 97 % of control | [12] 92 % of control

Cc1ccc2c(c1)nc(-c1ccccn1)n2CCc1ccncc1
inactive: dose: 50.0 mg/kg/injection, schedule: Q01DX001 (ip), vehicle: saline with Tween-80 95 % of control | dose: 100.0 mg/kg/injection, schedule: Q01DX001 (ip), vehicle: saline with Tween-80 96 % of control | dose: 200.0 mg/kg/injection, schedule: Q01DX001 (ip), vehicle: saline with Tween-80 101 % of control

c1cc2cc3c(cc2[nH]1)OCO3
inactive: dose: 50.0 mg/kg/injection, schedule: Q01DX005 (ip), vehicle: Klucel + Tween-80 95 % of control | dose: 100.0 mg/kg/injection, schedule: Q01DX005 (ip), vehicle: Klucel + Tween-80 90 % of control | dose: 200.0 mg/kg/injection, schedule: Q01DX005 (ip), vehicle: Klucel + Tween-80 95 % of control

Cc1csc(NN=O)n1
inactive: dose: 1.56 mg/kg/injection, schedule: Q01DX009 (ip), vehicle: water 98 % of control | dose: 3.12 mg/kg/injection, schedule: Q01DX009 (ip), vehicle: water 104 % of control and 95 % of control | dose: 6.25 mg/kg/injection, schedule: Q01DX009 (ip), vehicle: water 105 % of control and 96 % of control | dose: 12.5 mg/kg/injection, schedule: Q01DX009 (ip), vehicle: water 100 % of control and 102 % of control | [15] 99 % of control and 102 % of control | [16] 111 % of control

O=C1NC(=O)[C@H]2C3C=CC([C@@H]12)[C@@H]1C(=O)NC(=O)[C@H]31
inactive: [15] 105 % of control | [16] 100 % of control | [17] 97 % of control | [18] 92 % of control

C=C(C)[C@H]1CCC23C[C@@H]4C(C[C@H]2C1(C)CCC(=O)O)C4(C)C3 (some centres undefined)
inactive: dose: 5.5 mg/kg/injection, schedule: Q01DX005 (ip), vehicle: Klucel (hydroxypropylcellulose) (HPC) 100 % of control | dose: 11.0 mg/kg/injection, schedule: Q01DX005 (ip), vehicle: Klucel (hydroxypropylcellulose) (HPC) 106 % of control | dose: 22.0 mg/kg/injection, schedule: Q01DX005 (ip), vehicle: Klucel (hydroxypropylcellulose) (HPC) 100 % of control | [7] 91 % of control | dose: 44.0 mg/kg/injection, schedule: Q01DX005 (ip), vehicle: Klucel (hydroxypropylcellulose) (HPC) 100 % of control | [8] 100 % of control | [9] 91 % of control | [14] 91 % of control

Cc1cc([Se][Se]c2cc(C)c(C)cc2[N+](=O)[O-])c([N+](=O)[O-])cc1C
inactive: [19] 92 % of control | [20] 93 % of control | [21] 91 % of control

CSc1ccc2c(c1)C(N1CCN(C)CC1)Cc1ccccc1S2 (centres undefined)
inactive: dose: 6.25 mg/kg/injection, schedule: Q01DX009 (ip), vehicle: saline with Tween-80 106 % of control and 107 % of control and 114 % of control | [1] 103 % of control and 107 % of control and 95 % of control | [10] 117 % of control | [2] 86 % of control and 95 % of control | [11] 118 % of control

c1cc(-c2nnc3ccccn23)c2c(-c3nnc4ccccn34)cccc2c1
inactive: [3] 100 % of control | [12] 97 % of control | [13] 97 % of control

Cc1nnc(SCC2=C(C(=O)O)N3C(=O)C(NC(=O)Cn4cc(Cl)c(=O)c(Cl)c4)C3SC2)s1 (centres undefined)
inactive: [16] 105 % of control | [17] 101 % of control | [18] 100 % of control

CSc1nc2c(nnn2C2OC(CO)C(O)C(O)C2O)c(=O)[nH]1 (centres undefined)
inactive: [19] 100 % of control | [20] 97 % of control | [21] 102 % of control

O=[N+]([O-])c1ccc(NCCO)c([N+](=O)[O-])c1
inactive: dose: 100.0 mg/kg/injection, schedule: Q04DX003 (ip), vehicle: saline with Tween-80 100 % of control | dose: 200.0 mg/kg/injection, schedule: Q04DX003 (ip), vehicle: saline with Tween-80 100 % of control | dose: 400.0 mg/kg/injection, schedule: Q04DX003 (ip), vehicle: saline with Tween-80 90 % of control

NP(N)(=O)NC(=O)c1ccc(F)cc1
inactive: [4] 100 % of control | [5] 100 % of control
